Reference: patent US5041448A, “(4-piperidinylmethyl and -hetero) purines” (Janssen Pharmaceutica N.V., priority 1985, dated 1991)

Test system: compound 48/80-induced lethality in rats
Test: Protection of rats from compound 48/80-induced lethality
Type: in vivo, rat (male, inbred Wistar strain)
Conditions: male Wistar rats, s.c. or oral, one hour before 0.5 mg/kg i.v. compound 48/80, ED50 = dose protecting 50% of animals, survival after 4 hours; for ED50: Rattus norvegicus, 4 h, read-out: compound 48/80 lethality test in rats-ED50
Description: Protection of rats from compound 48/80-induced lethality.
Compound 48/80, a mixture of oligomers obtained by condensation of 4-methoxy-N-methylbenzeneethanamine and formaldehyde has been described as a potent histamine releasing agent (Int. Arch. Allergy, 13, 336 (1958)). The protection from compound 48/80-induced lethal circulatory collapse appears to be a simple way of evaluating quantitatively the antihistaminic activity of test compounds. Male rats of an inbred Wistar strain, weighing 240-260 g were used in the experiment. After overnight starvation the rats were transferred to conditioned laboratories (temp.=21±1° C., relative humidity=65±5%). The rats were treated subcutaneously or orally with a test compound or with the solvent (NaCl solution, 0.9%). One hour after treatment there was injected intravenously compound 48/80, freshly dissolved in water, at a dose of 0.5 mg/kg (0.2 ml/100 g of body weight). In control experiments, wherein 250 solvent-treated animals were injected with the standard dose of compound 48/80, not more than 2.8% of the animals survived after 4 hours. Survival after 4 hours is therefore considered to be a safe criterion of a protective effect of drug administration.
Said ED50 -values are the values in mg/kg body weight at which the tested compounds protect 50% of the tested animals against compound 48/80-induced lethality.

9-(2-furanylmethyl)-N-[1-[4-[(2-thiazolyl)amino]pentyl]-4-piperidinyl]-9H-purin-8-amine [Compound 173]
compound 48/80 lethality test in rats-ED50: 0.08 mg/kg body weight

Cl.Cl.O.O.c1coc(Cn2c(NC3CCN(CC4COc5ccccc5O4)CC3)nc3cncnc32)c1 (stereo not shown) [Compound 60, N-[1-[(2,3-dihydro-1,4-benzodioxin-2-yl)methyl]-4-piperidinyl]-9-(2-furanyl-methyl)-9H-purin-8-amine dihydrochloride dihydrate]
ED50: 0.08 mg/kg

Cc1ccc(Cn2c(NC3CCN(CC4COc5ccccc5O4)CC3)nc3cncnc32)o1 (stereo not shown) [Compound 61, N-[1-[(2,3-dihydro-1,4-benzodioxin-2-yl)methyl]-4-piperidinyl]-9-[(5-methyl-2-furanyl)methyl]-9H-purin-8-amine]
ED50: 0.01 mg/kg

COc1ccc(CCN2CCC(Cc3nc4ncnc(O)c4n3Cc3ccc(F)cc3)CC2)cc1 [Compound 62, 7-[(4-fluorophenyl)methyl]-8-[[1-[2-(4-methoxyphenyl)ethyl]-4-piperidinyl]methyl]-7H-purin-6-ol]
ED50: 0.04 mg/kg

COc1ccc(CCN2CCC(Oc3nc4cncnc4n3Cc3ccc(F)cc3)CC2)cc1 [Compound 64]
ED50: 0.08 mg/kg

COc1ccc(CCN2CCC(Nc3nc4cncnc4n3Cc3ccccn3)CC2)cc1 [Compound 74, N-[1-[2-(4-methoxyphenyl)ethyl]-4-piperidinyl]-9-(2-pyridinylmethyl)-9H-purin-8-amine]
ED50: 0.01 mg/kg

COc1ccc(CCN2CCC(Nc3nc4cncnc4n3Cc3ccc(F)cc3)CC2)cc1 [Compound 75]
ED50: 0.08 mg/kg

COc1ccc(CCN2CCC(Nc3nc4cncnc4n3Cc3ccco3)CC2)cc1 [Compound 76]
ED50: 0.02 mg/kg

COc1ccc(CCN2CCC(Nc3nc4cncnc4n3Cc3cccs3)CC2)cc1 [Compound 77]
ED50: 0.02 mg/kg

COc1ccc(CCN2CCC(Nc3nc4ncncc4n3Cc3ccc(F)cc3)CC2)cc1 [Compound 78]
ED50: 0.04 mg/kg

COc1ccc(CCN2CCC(Nc3nc4cncnc4n3Cc3ccc(C)o3)CC2)cc1 [Compound 79]
ED50: 0.04 mg/kg

COc1ccc(CCN2CCC(Nc3nc4cncnc4n3Cc3ccc(F)cc3)CC2)cc1 [Compound 80]
compound 48/80 lethality test in rats-ED50 (240 min): 0.04 mg/kg body weight

COc1ccc(CCN2CCC(Nc3nc4cncnc4n3Cc3ccccc3)CC2)cc1 [Compound 83]
ED50: 0.08 mg/kg

Cc1nc2ccccn2c(=O)c1CCN1CCC(Nc2nc3cncnc3n2Cc2cnccn2)CC1 [Compound 87, 2-methyl-3-[2-[4-[[9-(2-pyrazinylmethyl)-9H-purin-8-yl]amino]-1-piperidinyl]-ethyl]-4H-pyrido[1,2-a]pyrimidin-4-one]
ED50: 0.08 mg/kg

Cc1nc2ccccn2c(=O)c1CCN1CCC(Nc2nc3cncnc3n2Cc2ccco2)CC1 [Compound 88]
ED50: 0.02 mg/kg

Cc1nc2ccccn2c(=O)c1CCN1CCC(Nc2nc3cncnc3n2Cc2cccs2)CC1 [Compound 89]
ED50: 0.08 mg/kg

Cc1nc2ccccn2c(=O)c1CCN1CCC(Nc2nc3cncnc3n2Cc2ccccc2)CC1 [Compound 100]
ED50: 0.02 mg/kg

O=c1oc2ccccc2cc1CCN1CCC(Nc2nc3cncnc3n2Cc2ccco2)CC1 [Compound 104]
ED50: 0.04 mg/kg

O=c1oc2ccccc2cc1CCN1CCC(Nc2nc3cncnc3n2Cc2ccccn2)CC1 [Compound 106]
ED50: 0.08 mg/kg

Cc1ccc(Cn2c(NC3CCN(CCc4cc5ccccc5oc4=O)CC3)nc3cncnc32)o1 [Compound 107]
ED50: 0.02 mg/kg

O=C(O)/C=C/C(=O)O.O=C(O)/C=C/C(=O)O.O=c1[nH]c2ccccc2n1CCCN1CCC(Cc2nc3cncnc3n2Cc2ccc(F)cc2)CC1 [Compound 114, 1-[3-[4-[[9-[(4-fluorophenyl)methyl]-9H-purine-8-yl]methyl]-1-piperidinyl]-propyl]-1,3-dihydro-2H-benzimidazol-2-one (E)-2-butenedioate(1:2)]
ED50: 0.04 mg/kg

O=c1[nH]c2ccccc2n1CCN1CCC(Nc2nc3cncnc3n2Cc2ccc(F)cc2)CC1 [Compound 115, 1-[2-[4-[[9-[(4-fluorophenyl)methyl]-9H-puri-8-yl]amino]-1-piperidinyl]ethyl]-1,3-dihydro-2H-benzimidazol-2-one]
ED50: 0.08 mg/kg

Fc1ccc(Cn2c(NC3CCN(CCc4ccccn4)CC3)nc3cncnc32)cc1 [Compound 141, 9-[(4-fluorophenyl)methyl]-N-[1-[2-(2-pyridinyl)ethyl]-4-piperidinyl]-9H-purin-8-amine]
ED50: 0.01 mg/kg

c1ccc(CCN2CCC(Nc3nc4cncnc4n3Cc3ccco3)CC2)nc1 [Compound 142, 9-(2-furanylmethyl)-N-[1-[2-(2-pyridinyl)ethyl]-4-piperidinyl]-9H-purin-8-amine]
ED50: 0.02 mg/kg

c1ccc(CCN2CCC(Nc3nc4cncnc4n3Cc3cccs3)CC2)nc1 [Compound 143, N-[1-[2-(2-pyridinyl)ethyl]-4-piperidinyl]-9-(2-thienylmethyl)-9H-purin-8-amine]
ED50: 0.02 mg/kg

c1ccc(CCN2CCC(Nc3nc4cncnc4n3Cc3ccccn3)CC2)nc1 [Compound 144, N-[1-[2-(2-pyridinyl)ethyl]-4-piperidinyl]-9-(2-pyridinylmethyl)-9H-purin-8-amine]
ED50: 0.04 mg/kg

Cc1ccc(Cn2c(NC3CCN(CCc4ccccn4)CC3)nc3cncnc32)o1 [Compound 145, 9-[(5-methyl-2-furanyl)methyl]-N-[1-[2-(2-pyridinyl)ethyl]-4a-piperidinyl]-9H-purin-8-amine]
ED50: 0.01 mg/kg

c1cnc(NCCN2CCC(Nc3nc4cncnc4n3Cc3ccco3)CC2)nc1 [Compound 165]
ED50: 0.02 mg/kg

c1cnc(NCCN2CCC(Nc3nc4cncnc4n3Cc3cccs3)CC2)nc1 [Compound 167]
ED50: 0.08 mg/kg

Cc1ccc(Cn2c(NC3CCN(CCNc4ncccn4)CC3)nc3cncnc32)o1 [Compound 168]
ED50: 0.02 mg/kg

COc1ncnc2c1nc(CC1CCN(CCNc3ncccn3)CC1)n2Cc1ccc(F)cc1 [Compound 169]
ED50: 0.08 mg/kg

Fc1ccc(Cn2c(CC3CCN(CCNc4ncccn4)CC3)nc3cncnc32)cc1 [Compound 171]
ED50: 0.08 mg/kg

Fc1ccc(Cn2c(NC3CCN(CCNc4nccs4)CC3)nc3cncnc32)cc1 [Compound 172, 9-[(4-fluorophenyl)methyl]-N-[1-[2-(2-thiazolylamino)ethyl)-4-piperidinyl]-9H-purin-8-amine]
ED50: 0.04 mg/kg

Fc1ccc(Cn2c(NC3CCN(CCNc4nc5cnccc5[nH]4)CC3)nc3cncnc32)cc1 [Compound 183, 9-[(4-fluorophenyl)methyl]-N-[1-[2-[(1H-imidazo[4,5-c]pyridin-2-yl)amino]ethyl]-4-piperidinyl]-9H-purin-8-amine (E)-2-butenedioate(1:3) monohydrate]
ED50: 0.04 mg/kg
